Experiments:
[1] = target: EGFR (murine) (UniProt P00533); conditions: nih3t3/c7
[2] = target: EGFR (UniProt P00533)
[3] = target: EGFR (murine) (UniProt P00533); conditions: 3t3

Chain of EGFR (P00533 whole entry, looked up): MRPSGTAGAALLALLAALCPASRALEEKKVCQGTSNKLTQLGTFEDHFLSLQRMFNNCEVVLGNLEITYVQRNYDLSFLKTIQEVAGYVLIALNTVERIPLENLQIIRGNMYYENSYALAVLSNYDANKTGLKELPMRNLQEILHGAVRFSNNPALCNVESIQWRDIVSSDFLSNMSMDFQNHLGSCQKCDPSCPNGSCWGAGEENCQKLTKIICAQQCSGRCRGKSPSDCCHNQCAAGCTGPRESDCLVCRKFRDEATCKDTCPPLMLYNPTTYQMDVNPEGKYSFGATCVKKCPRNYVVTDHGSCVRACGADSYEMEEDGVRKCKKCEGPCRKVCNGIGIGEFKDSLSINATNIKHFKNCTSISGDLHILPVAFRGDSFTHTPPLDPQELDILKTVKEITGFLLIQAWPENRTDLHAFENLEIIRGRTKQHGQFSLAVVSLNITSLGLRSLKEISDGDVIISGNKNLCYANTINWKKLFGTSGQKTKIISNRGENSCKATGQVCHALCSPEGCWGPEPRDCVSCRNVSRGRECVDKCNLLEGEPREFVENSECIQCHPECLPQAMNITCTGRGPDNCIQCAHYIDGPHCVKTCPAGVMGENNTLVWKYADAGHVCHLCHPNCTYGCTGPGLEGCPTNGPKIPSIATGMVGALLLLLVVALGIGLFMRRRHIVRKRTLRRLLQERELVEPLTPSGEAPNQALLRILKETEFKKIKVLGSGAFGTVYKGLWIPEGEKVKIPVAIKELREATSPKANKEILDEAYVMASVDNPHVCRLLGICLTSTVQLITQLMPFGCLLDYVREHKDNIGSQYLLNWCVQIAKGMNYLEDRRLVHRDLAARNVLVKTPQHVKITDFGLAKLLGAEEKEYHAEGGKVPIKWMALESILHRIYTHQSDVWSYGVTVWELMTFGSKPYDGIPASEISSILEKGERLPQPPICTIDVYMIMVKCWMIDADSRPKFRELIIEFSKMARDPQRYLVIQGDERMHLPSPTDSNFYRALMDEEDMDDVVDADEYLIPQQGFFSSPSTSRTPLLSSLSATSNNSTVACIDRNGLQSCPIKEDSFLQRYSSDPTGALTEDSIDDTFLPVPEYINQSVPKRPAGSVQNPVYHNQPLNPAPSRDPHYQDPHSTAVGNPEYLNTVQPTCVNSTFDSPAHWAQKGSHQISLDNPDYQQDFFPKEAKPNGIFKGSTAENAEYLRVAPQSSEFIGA
Chain of EGFR (murine) (P00533 whole entry, looked up): as above

IC50 [1] [µM] | IC50 [2] [µM] | IC50 [3] [µM] | Structure (SMILES)
> 100 |  |  | COc1ccc(-c2ccc3c(c2)NC(=O)/C3=C\c2[nH]c3c(c2CCC(=O)O)CCCC3)cc1
> 100 | > 100 |  | Cc1[nH]c2ccccc2c1/C=C1\C(=O)Nc2ccc(S(=O)(=O)N(C)C)cc21
> 100 | > 100 |  | O=C(O)CCc1c(/C=C2\C(=O)Nc3ccc(Br)cc32)[nH]c2c1CCCC2
> 100 | > 100 |  | CNS(=O)(=O)c1ccc2c(c1)/C(=C/c1c[nH]c3ccccc13)C(=O)N2
 | > 100 |  | O=C(O)CCc1c(/C=C2\C(=O)Nc3ccccc32)[nH]c2c1CCCC2
> 100 | > 100 |  | CN(C)S(=O)(=O)c1ccc2c(c1)/C(=C/c1c[nH]c3ccccc13)C(=O)N2
 | > 100 |  | CCOC(=O)c1[nH]c(/C=C2\C(=O)Nc3ccccc32)c(CCC(=O)O)c1C
> 100 | > 100 |  | CNS(=O)(=O)c1ccc2c(c1)/C(=C/c1c(C)[nH]c3ccccc13)C(=O)N2
> 100 | > 100 |  | CN(C)S(=O)(=O)c1ccc2c(c1)/C(=C/c1ccc3[nH]ccc3c1)C(=O)N2
 | > 100 |  | COc1ccc2c(c1)NC(=O)/C2=C\c1[nH]c2c(c1CCC(=O)O)CCCC2
 | > 100 |  | Cc1c[nH]c(/C=C2\C(=O)Nc3cccc(C)c32)c1CCC(=O)O
> 100 | > 100 |  | Cc1[nH]c2ccccc2c1/C=C1\C(=O)Nc2ccc(S(N)(=O)=O)cc21
> 100 | > 100 |  | NS(=O)(=O)c1ccc2c(c1)/C(=C/c1ccc3[nH]ccc3c1)C(=O)N2
> 100 | > 100 |  | CNS(=O)(=O)c1ccc2c(c1)/C(=C/c1ccc3[nH]ccc3c1)C(=O)N2
79 | > 100 | 28.6 | CC(=O)Nc1ccc2c(c1)NC(=O)/C2=C/c1ccc(OCCN2CCOCC2)cc1-c1cccs1
 | > 100 |  | CCOc1cccc(-c2ccc3c(c2)NC(=O)/C3=C\c2[nH]cc(C)c2CCC(=O)O)c1
> 100 | > 100 |  | COc1ccccc1-c1ccc2c(c1)NC(=O)/C2=C\c1[nH]c2c(c1CCC(=O)O)CCCC2
> 100 | > 100 |  | CN(C)S(=O)(=O)c1ccc2c(c1)/C(=C/c1cc3ccccc3[nH]1)C(=O)N2
> 100 | > 100 |  | O=C(O)CCc1c(/C=C2\C(=O)Nc3cc(-c4ccccc4)ccc32)[nH]c2c1CCCC2

From the Kinase Knowledgebase extract (Sharma et al. 2016)
